# Laboratory results: patent publication US20100272829A1, “COMPOSITION FOR TRANSDERMAL OR TRANSMUCOSAL ADMINISTRATION” (priority 2007, published 2010)
# Tests used:
# [1] = Yellowness (b* value) of water suspension samples allowed to stand outside for 10 days (photolysis); type: physicochemical; conditions: suspension in distilled water, dried and ground
# Protocol: The following water suspension samples are charged in a glass bottle, allowed to stand outside for 10 days, dried and ground, and then yellowness (b* value) was measured by a colorimeter.
# [2] = Solubility in artificial seawater (zinc determined by atomic absorption spectrometry); type: physicochemical
# Protocol: The solubility of samples shown below in artificial sweater was measured.
# Artificial sweater (pH of 7.8) was added to each sample shown below to make total amount of 500 mL, followed by shaking at 20° C. for 24 hours. After filtration, determination of zinc was performed by subjecting the filtrate to atomic absorption spectrometry.
# [3] = tested on: Malassezia furfur NBRC 0656; experiment: Antibacterial test I (MIC) by a liquid culture method; type: cell-based; conditions: Sabouraud glucose medium + 1% olive oil, shaking at 30° C., 10^6cfu/mL
# Protocol: With respect to the composition of zinc pyrithione and hydrous titanium oxide of Example 2, an antibacterial test (MIC) against Malassezia furfur by a liquid culture method was performed in comparison with zinc pyrithione.
# Sample 17: Composition of zinc pyrithione (manufactured by Arch Chemicals, Inc.) and hydrous titanium oxide (Example 2) Sample 18: Zinc pyrithione (manufactured by Arch Chemicals, Inc.) Test fungi: Malassezia furfur NBRC 0656 Test medium: 1% olive oil is added to Sabouraud glucose medium Test conditions: shaking culture at 30° C. for 4 days (120 rpm)
# [4] = tested on: Malassezia furfur NBRC 0656; experiment: Antibacterial test II (MIC) by an agar medium; type: cell-based; conditions: YM agar medium added with olive oil, 28° C., 10^5cfu/mL
# Protocol: With respect to the composition of zinc pyrithione and hydrous titanium oxide (Example 3), an antibacterial test (MIC) against Malassezia furfur by an agar medium was performed in comparison with zinc pyrithione.
# Sample 19: Composition of zinc pyrithione (manufactured by Kolon Life Science Inc.) and hydrous titanium oxide (Example 3) Sample 20: Zinc pyrithione (manufactured by Kolon Life Science Inc.) Test fungi: Malassezia furfur NBRC 0656 Test medium: YM agar medium added with olive oil Test conditions: culture at 28° C. for 7 days
# [5] = artificial seawater pH 7.8, shaking at 20° C. for 24 hours, filtrate
substance,measurement,setting,value
zinc pyrithione [Sample 9],Yellowness (b* value),[1],8.80
zinc pyrithione [Sample 2],Solubility in artificial seawater I: Quantitative value of zinc,[2]; [5],1.16 µg/mL
same,Solubility in artificial seawater I: Value in terms of zinc pyrithione,[2]; [5],5.64 µg/mL
same,"MIC, 2 days",[3]; 2 days,6.25 µg/mL
same,"MIC, 4 days",[3]; 4 days,6.25 µg/mL
zinc pyrithione [Sample 6],"MIC, 7 days",[4],6.25 µg/mL
same,Solubility in artificial seawater II: Value in terms of zinc pyrithione,"[2]; artificial seawater pH 7.8, 20° C., 24 hours",5.24 µg/mL
same,Solubility in artificial seawater II: Quantitative value of zinc,"[2]; artificial seawater pH 7.8, 20° C., 24 hours, for samples 7 and 8 zinc derived from zinc pyrithione and zinc oxide",1.07 µg/mL
